# Measured values taken from US20050148614A1 (priority 1997, published 2005).
# Experiments:
# [1] = system: amnesia induced by the injection of vincristine; assay: Evaluation test of the social memory in the rat after lesions caused by injection of vincristine; assay type: in vivo; settings: vincristine-lesioned rats
# Experimental: In this model, the effects are evaluated of the products tested on amnesia induced by the injection of vincristine which induces biochemical alterations similar to the changes present in Alzheimer's disease.
# The procedures used in this model, lesions caused by vincristine as well as the evaluation of the social memory are described in EP 655247.
# Evaluation Test of the Social Memory in the Rat.
# The dose of 1 mg/kg i.p. of tacrine is then administered to the two groups of rats.
# [2] = system: amnesia induced by the injection of vincristine; settings: vincristine-lesioned rats; as described in EP 655247; cited from earlier work
Compound,functional recovery in terms of memory ([1]; SR 57746A alone at 5 mg/kg p.o.),efficacious dose (functional recovery of memory) [2] [mg/kg],recovery of memory ([1]; solvent then tacrine 1 mg/kg i.p. (control group))
"Cl.FC(F)(F)c1cccc(C2=CCN(CCc3ccc4ccccc4c3)CC2)c1 [SR 57746A, 1-(2-naphth-2-ylethyl)-4-(3-trifluoromethylphenyl)-1,2,3,6-tetrahydropyridine hydrochloride]",insufficient to permit functional recovery in terms of memory,10,–
"Nc1c2c(nc3ccccc13)CCCC2 [tacrine, reference compound]",–,–,no recovery of memory
